Experimental data taken from article PMC10765375, “Crystal structure and enzymology of Solanum tuberosum inositol tris/tetrakisphosphate kinase 1 (StITPK1)” (Biochemistry, 2023).
“Also recorded” adds a separate entry of the source. Counter-ions that a name gives are not always drawn. Like-named read-outs stand apart in the source and are kept apart here.

Tests used:
[1] = biological target: T1, StITPK1 (Solanum tuberosum, UniProt A4H2J0); assay: Fluorescence polarization displacement of 2-FAM-InsP5; type: binding; conditions: Cheng-Prusoff with Kd 48 nM
T1 sequence (A4H2J0 entry or part of it): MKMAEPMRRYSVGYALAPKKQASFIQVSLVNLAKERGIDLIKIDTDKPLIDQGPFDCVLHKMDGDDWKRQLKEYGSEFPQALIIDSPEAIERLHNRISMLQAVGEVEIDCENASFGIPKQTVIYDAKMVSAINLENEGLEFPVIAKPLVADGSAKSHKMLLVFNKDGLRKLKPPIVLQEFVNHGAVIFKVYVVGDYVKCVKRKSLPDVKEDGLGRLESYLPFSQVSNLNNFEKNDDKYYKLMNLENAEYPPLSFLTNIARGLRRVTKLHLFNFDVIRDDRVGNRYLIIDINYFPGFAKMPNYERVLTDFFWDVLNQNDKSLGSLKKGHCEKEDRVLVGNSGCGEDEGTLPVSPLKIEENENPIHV
From the text: To determine the relative strengths of binding of different inositol phosphate and inositol pyrophosphate substrates of StITPK1 we undertook fluorescence polarization experiments with 2-FAM-InsP5 [35]. […] A saturation curve for binding of 2-FAM-InsP5 to StITPK1 is shown (Figure S5) and displacement curves are shown for diverse inositol phosphates (Figure 2). The structures of these compounds are shown (Figure S1). […]
Fluorescence polarization (anisotropy)
A curve for binding of 2-FAM-InsP5 to StITPK1 was obtained by incubation of 2 nM 2-FAM-InsP5 [1] with increasing concentration (1-500 nM) of StITPK1 in 20 mM HEPES pH 6.5, 1 mM EDTA, 100 mM NaCl, after. Thereafter, displacement assays were performed by titration of inositol phosphate, inositol pyrophosphate […]
or analog thereof with 2 nM 2-FAM-InsP5 and 50 nM StITPK1. Compounds were tested for displacement in a range of 1 nM - 50 µM. Fluorescence polarization was measured in 384-well, black, low-binding plates, Corning product 3573. Binding and displacement curves (anisotropy) were log transformed and fitted to a 4-parameter logistic (in GraphPad Prism v.6 software (GraphPad Software Inc., San Diego, USA). Fitting of the […]
Substituting the value of Kd for KM in the Cheng-Prusoff equation for competitive inhibition: […]
with concentration of 2-FAM-InsP5 [S], yielded Ki with confidence intervals adjusted by linear approximation.
M.; Jamieson, A. G.; Potter, B. V.; Schwabe, J. W., Insights into the activation mechanism of class I HDAC complexes by inositol phosphates. Nat Commun 2016, 7, 11262. […]

[2] = biological target: T1, StITPK1; assay: Kinase assay with ATP, HPLC of products; type: biochemical; conditions: for kinase substrate status: with ATP, HPLC; for Product formation (3h) / Product formation (12h): 25°C
Protocol: (§1) Kinase assays were performed with ATP-regeneration as described for ATP-grasp kinases ITPK1/2 and VIH1/2 [2-3, 27-29], here in 20 mM HEPES pH 6.5, 1 mM MgCl2, 0.5 mM ATP and 1 mM inositol phosphate substrate. The low rate constants for phospho-kinase activity and the low sensitivity of NMR, PAGE and HPLC […]
(§2) [2-3, 27-29], here with or without 4 µM protein for 3h or 12h at 25 °C. Competition/inhibition assays were […]
InsP6, and competitor, typically 0.5 mM, incubated with or without 3 µM protein for 2 h at 25 °C . […]
(§3) 0.5 mM inositol pyrophosphate substrate incubated with 4 µM protein at 25 °C . HPLC analysis and detection of inositol phosphates by complexation with ferric ion was performed as described. Peak area data were analysed with the chromatography Jasco ChromNav v.2 software and x,y data were imported into GraphPad Prism v.6 software (GraphPad Software Inc., San Diego, USA) for plotting of chromatograms without additional processing of the data. […]

[3] = tested on: T2, AtITPK1; assay: Kinase assay with ATP, HPLC of products; type: biochemical, Arabidopsis thaliana; conditions: for kinase substrate status: with ATP, HPLC
T2 construct: made in house
Protocol: as §1
[2-3, 27-29], here with or without 4 µM protein for 3h or 12h at 25 °C. […]
as §3

[4] = biological target: T1, StITPK1; assay: Competition/inhibition of InsP6 5-phospho-kinase activity, HPLC; type: biochemical; conditions: 5 μM inhibitor, 1 mM InsP6
Protocol: Figure 6 Inhibition of StITPK1 phospho-kinase activity by inositol pyrophosphate analogs. […] Reactions were performed for 2h at 30 °C with 3 μM StITPK1, 0.5 mM ATP, 1mM inositol phosphate in the absence or presence of competitor. The extent of inhibition at inhibitor concentration (mM) indicated by number in each column was estimated from the integrated peak areas of substrate and product peaks resolved by HPLC (example HPLC traces are shown in Figure S10). Significant difference at p=0.05 between inhibitor treatments (by One-way ANOVA and Tukey’s multiple comparisons test) is indicated by the absence of a common letter.
Schrödinger, LLC, New York, NY, 2021). All models of the complexes were subsequently energy minimized to convergence using the Prime module of Schrodinger (Schrödinger Release 2022-2: Prime) employing the all atom OPLS force field and the VSGB 2.1 implicit solvent model. Illustrations were generated using the PyMOL Molecular Graphics System, Version 2.5 (Schrödinger, LLC). […]
(§4) InsP6, and competitor, typically 0.5 mM, incubated with or without 3 µM protein for 2 h at 25 °C . […] Peak area data were analysed with the chromatography Jasco ChromNav v.2 software and x,y data were imported into GraphPad Prism v.6 software (GraphPad Software Inc., San Diego, USA) for plotting of chromatograms without additional processing of the data.
(§5) Fluorescence polarization (anisotropy) […]

[5] = tested on: T2, AtITPK1; conditions: cited from earlier work
[6] = biological target: T1, StITPK1; assay: Competition/inhibition of Ins(1,2,3,4,5)P5 5-phospho-kinase activity, HPLC; type: biochemical; conditions: 0.5 mM competing substrate/inhibitor, 1 mM Ins(1,2,3,4,5)P5, 3h experiment
[7] = tested on: AtVIH2; design: method as in PMID 31436531; conditions: isolated kinase domain ref 24; cited from earlier work
[8] = biological target: T1, StITPK1; assay: Fluorescence polarization saturation binding of 2-FAM-InsP5; conditions: 2 nM probe, 1-500 nM StITPK1, one-site binding model
Protocol: Schrödinger, LLC, New York, NY, 2021). All models of the complexes were subsequently energy minimized to convergence using the Prime module of Schrodinger (Schrödinger Release 2022-2: Prime) employing the all atom OPLS force field and the VSGB 2.1 implicit solvent model. Illustrations were generated using the PyMOL Molecular Graphics System, Version 2.5 (Schrödinger, LLC).
as §1, §2, §4, §5
or analog thereof with 2 nM 2-FAM-InsP5 and 50 nM StITPK1. […] Fluorescence polarization was measured in 384-well, black, low-binding plates, Corning product 3573. […]

[9] = 2 nM 2-FAM-InsP5, 50 nM StITPK1, pH 6.5, read-out: Ki for displacement of 2-FAM-InsP5

Ki [1, 9] [nM]	Discrimination between InsP4 enantiomers in favour of Ins(3,4,5,6)P4 ([2]; vs Ins(1,4,5,6)P4)	Discrimination between InsP4 enantiomers in favour of Ins(3,4,5,6)P4 ([3]; vs Ins(1,4,5,6)P4)	inhibition of 5-PP-InsP5-synthesizing (InsP6 phospho-kinase) activity [4]	SMILES	kinase substrate status [2]	Vmax relative to InsP6 [5]	% inhibition at 3h, Ins(1,2,3,4,5)P5 substrate [6] [%]	Ki ([1]; Ki for displacement of 2-FAM-InsP5, 2 nM 2-FAM-InsP5, 50 nM StITPK1, pH 6.5) [nM]	turnover number, 1-phospho-kinase activity [7]	Product formation (3h) ([2]; 1 mM substrate) [μM/μM protein]	Product formation (12h) ([2]; 1 mM substrate) [μM/μM protein]	Product formation (separate 12h experiment) ([2]; 1 mM substrate, separate 12h experiment) [μM/μM protein]	Kcat (turnover of substrate) ([2]; in the absence of inhibitor, 1 mM substrate, 0.5 mM ATP, pH 6.5)	kinase substrate status [3]	Kcat for phospho-kinase activity ([5]; calculated from data ref 20-21, 27)	Kd [8] [nM]
716	~ 200 fold	~ 200 fold	particularly powerful inhibitor	O=P(O)(O)O[C@H]1[C@H](OP(=O)(O)O)[C@@H](OP(=O)(O)O)[C@@H](O)[C@@H](O)[C@@H]1OP(=O)(O)O [Ins(3,4,5,6)P4, 1D-myo-inositol 3,4,5,6-tetrakisphosphate]	better substrate than both its enantiomer Ins(1,4,5,6)P4 and InsP6	3 orders of magnitude greater	–	–	–	–	–	–	–	–	–	–
–	–	–	–	O=P(O)(O)O[C@H]1[C@H](OP(=O)(O)O)[C@@H](OP(=O)(O)O)[C@H](OP(=O)(O)O)[C@@H](OP(=O)(O)O)[C@H]1OP(=O)(O)O [myo-InsP6, myo-inositol 1,2,3,4,5,6-hexakisphosphate]	generating 5-PP-InsP5; also recorded: strongest phospho-kinase substrate	–	89	126	~ 0.4 min^-1	241	289	220	~ 1.14 min^-1	strongest phospho-kinase substrate	~ 1.5 min^-1	–
–	–	–	–	O=C(NCCO[C@H]1[C@@H](OP(=O)(O)O)[C@H](OP(=O)(O)O)[C@@H](OP(=O)(O)O)[C@H](OP(=O)(O)O)[C@H]1OP(=O)(O)O)c1ccc2c(c1)C(=O)OC21c2ccc(O)cc2Oc2cc(O)ccc21 [2-FAM-InsP5, 2-O-(2-(5-fluoresceinylcarboxy)-aminoethyl)-myo-inositol 1,3,4,5,6-pentakisphosphate (triethylammonium salt)]	–	–	–	–	–	–	–	–	–	–	–	48
162	–	–	–	O=P(O)(O)O[C@H]1[C@@H](OP(=O)(O)O)[C@H](OP(=O)(O)O)[C@@H](OP(=O)(O)OP(=O)(O)O)[C@H](OP(=O)(O)O)[C@H]1OP(=O)(O)O [5-PP-InsP5, 5-diphospho-myo-inositol 1,2,3,4,6-pentakisphosphate]	not a substrate	–	82	–	~ 1 min^-1	0	0	–	–	not a substrate	–	–
